As a reminder, the EC50 is the concentration at which the effect is half-maximal. Read a low EC50 as an effect from little substance.

Each structure is given as a SMILES string.

The values that follow come from US20260200890A1, “ADAR1 INHIBITORS AND METHODS OF USING THE SAME” (AVAMMUNE THERAPEUTICS INC., priority 2022, published 2026).

The target of this test is T1, ADAR1 (Homo sapiens, UniProt P55265).
T1 construct: endogenous in cells; host or cells: p110 KO A549 dual cells
T1 sequence (P55265 1-1226): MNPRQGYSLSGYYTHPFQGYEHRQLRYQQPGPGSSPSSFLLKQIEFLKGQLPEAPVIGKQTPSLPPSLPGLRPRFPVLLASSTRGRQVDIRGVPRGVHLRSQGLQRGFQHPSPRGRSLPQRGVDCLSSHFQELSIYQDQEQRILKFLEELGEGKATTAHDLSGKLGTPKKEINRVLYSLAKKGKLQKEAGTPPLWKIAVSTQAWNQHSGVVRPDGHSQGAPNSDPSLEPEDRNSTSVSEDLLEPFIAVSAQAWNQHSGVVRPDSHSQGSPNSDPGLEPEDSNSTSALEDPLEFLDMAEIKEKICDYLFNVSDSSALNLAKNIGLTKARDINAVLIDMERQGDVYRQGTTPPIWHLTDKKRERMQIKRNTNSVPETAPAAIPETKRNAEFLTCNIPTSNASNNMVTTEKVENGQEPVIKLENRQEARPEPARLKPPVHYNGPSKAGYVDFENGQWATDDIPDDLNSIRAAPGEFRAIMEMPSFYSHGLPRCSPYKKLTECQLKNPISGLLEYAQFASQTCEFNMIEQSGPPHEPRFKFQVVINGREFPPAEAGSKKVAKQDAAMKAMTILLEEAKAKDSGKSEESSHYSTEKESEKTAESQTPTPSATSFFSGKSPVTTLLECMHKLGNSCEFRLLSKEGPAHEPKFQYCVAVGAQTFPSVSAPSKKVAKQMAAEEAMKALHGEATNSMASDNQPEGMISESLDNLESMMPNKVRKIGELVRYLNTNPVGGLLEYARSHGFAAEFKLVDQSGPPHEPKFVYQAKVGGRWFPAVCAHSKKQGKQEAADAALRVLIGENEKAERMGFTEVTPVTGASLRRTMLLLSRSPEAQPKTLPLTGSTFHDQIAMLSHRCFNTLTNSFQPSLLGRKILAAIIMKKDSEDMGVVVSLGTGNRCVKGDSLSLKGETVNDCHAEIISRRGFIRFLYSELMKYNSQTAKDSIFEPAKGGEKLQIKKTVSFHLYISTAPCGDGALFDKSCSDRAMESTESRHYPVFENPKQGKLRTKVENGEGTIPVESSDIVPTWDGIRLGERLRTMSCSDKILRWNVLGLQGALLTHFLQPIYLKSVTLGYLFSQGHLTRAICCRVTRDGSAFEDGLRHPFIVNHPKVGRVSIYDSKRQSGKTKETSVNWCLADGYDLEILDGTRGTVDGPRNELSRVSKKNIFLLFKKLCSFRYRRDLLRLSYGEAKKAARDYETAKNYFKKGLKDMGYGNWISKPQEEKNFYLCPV
Put plainly: ADAR1 Inhibition Assay (IFN fold-induction, Quanti-Luc luminescence, p110 KO A549 dual cells). Type of test: cell-based. To be noted: IFN fold-induction vs DMSO, 24 and 48 h. In outline:
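p110 KO A549 dual cells (20,000/well) in supplemented DMEM, treated next day with compound at 1% final DMSO for 24 and 48 h at 37 °C, 5% CO2. Supernatant luminescence read with Quanti-Luc; IFN fold-induction = sample RLU/mean DMSO RLU, used for EC50.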
Take `CCOC(=O)c1cc(-c2ccccc2)sc1NC(=O)COC(=O)c1cc(NS(C)(=O)=O)c(F)cc1F` [Compound 128]: the EC50 is > 100 µM.
The same measure for `CCOC(=O)c1nc(-c2ccccc2)sc1NC(=O)C1CCN(C(=O)c2cccc(NS(C)(=O)=O)c2)C1` (centres unmarked) [Compound 206]: > 100 µM; for `CCOC(=O)c1cc(-c2ccccc2)sc1NC(=O)CCOC(=O)c1cccc(NS(C)(=O)=O)c1` [Compound 229]: > 100 µM; for `CCOC(=O)c1cc(-c2ccccc2)sc1NC(=O)Cn1cc(CSc2cccc(NS(C)(=O)=O)c2)nn1` [Compound 360]: > 100 µM.
For `CCOC(=O)c1cc(-c2cccc(C)c2)sc1NC(=O)COC(=O)c1cccc(NS(C)(=O)=O)c1` [Compound 192], the EC50 was > 100 µM.
The same measure for `CCOC(=O)c1cc(-c2ccccc2)sc1NC(=O)CCc1cccc(NS(C)(=O)=O)c1` [Compound 165]: > 100 µM; for `CCOC(=O)c1cc(-c2ccccc2)sc1NC(=O)CN(c1cccc(CO)c1)S(C)(=O)=O` [Compound 105]: > 100 µM; for `CCOC(=O)c1cc(-c2ccccc2)sc1NC(=O)COC(=O)c1cccc(N(C)C)c1` [Compound 199]: > 100 µM.
The same measure for `CCOC(=O)c1cc(-c2ccccc2)sc1NC(=O)CN1C(=O)c2ccc(NS(C)(=O)=O)cc2C1=O` [Compound 234]: > 100 µM.
Turning to `CCOC(=O)c1cc(-c2ccccc2)sc1NC(=O)Cn1cc(C(=O)Nc2cccc(P(=O)(OCC)OCC)c2)nn1` [Compound 417], the EC50 is > 100 µM.
`CCOC(=O)c1c(NC(=O)COC(=O)c2cccc(NS(C)(=O)=O)c2)sc2c1CCN(C)C2` [Compound 104]: the EC50 was > 100 µM.
The same measure for `CCOC(=O)c1cc(-c2ccccc2)cnc1NC(=O)COC(=O)c1cccc(NS(C)(=O)=O)c1` [Compound 260]: > 100 µM.
The same measure for `CCOC(=O)c1cc(-c2ccccc2)sc1NC(=O)CNC(=O)c1ccc(Br)s1` [Compound 16]: > 100 µM; for `CS(=O)(=O)Nc1cccc(C(=O)OCC(=O)Nc2sc(-c3ccccc3)cc2C(=O)NC2CC2)c1` [Compound 85]: > 100 µM; for `COC(=O)c1ccsc1NC(=O)CNC(=O)c1cccc(S(N)(=O)=O)c1` [Compound 22]: > 100 µM.
With `CCOC(=O)c1cc(-c2ccccc2)sc1NC(=O)C1CCCN(C(=O)c2cccc(S(N)(=O)=O)c2)C1` (centres unmarked) [Compound 111], the EC50 was > 100 µM.
The same measure for `CCOC(=O)c1cc(-c2ccccc2)sc1N1C(=O)N(c2cccc(NS(C)(=O)=O)c2)C(C)(C)C1=O` [Compound 233]: > 100 µM; for `CCOC(=O)c1c(NC(=O)COC(=O)c2cccc(NS(C)(=O)=O)c2)sc2ccccc12` [Compound 243]: > 100 µM; for `CCOc1nc(NC(=O)COC(=O)c2cccc(NS(C)(=O)=O)c2)ncc1-c1ccccc1` [Compound 235]: > 100 µM.
As for `CCOC(=O)c1cc(-c2ccccc2)sc1NC(=O)[C@H]1CCN(C(=O)c2cccc(NS(C)(=O)=O)c2)C1` [Compound 156], the EC50 is ≤ 25 µM.
The result for `CCOC(=O)c1cc(-c2ccccc2)sc1NC(=O)COC(=O)c1cc(NS(C)(=O)=O)ccc1F` [Compound 129] reads > 100 µM; that for `CCOC(=O)c1cc(-c2ccccc2)sc1NC(=O)c1cnc(-c2cccc(NS(C)(=O)=O)c2)s1` [Compound 246], > 100 µM; that for `CCOC(=O)c1cc(-c2ccccc2)sc1NC(=O)c1nnc(-c2cccc(NS(C)(=O)=O)c2)o1` [Compound 219], ≤ 25 µM.
The same measure for `CCOC(=O)c1cc(-c2ccccc2)sc1NC(=O)C1CCN1C(=O)c1cccc(NS(C)(=O)=O)c1` (centres unmarked) [Compound 146]: > 100 µM; for `CCOC(=O)c1cc(-c2ccccc2)sc1NC(=O)COC(=O)c1cc(NS(C)(=O)=O)ccc1C` [Compound 125]: > 100 µM; for `CCOC(=O)c1cc(-c2ccc(OC)cc2)sc1NC(=O)COC(=O)c1cccc(NS(C)(=O)=O)c1` [Compound 205]: > 100 µM.
Turning to `CCOC(=O)c1cc(-c2ccc3c(c2)OCO3)sc1NC(=O)COC(=O)c1cccc(NS(C)(=O)=O)c1` [Compound 316], the concentration for a half-maximal effect (EC50) was > 100 µM.
The same measure for `CCOC(=O)c1cc(-c2ccccc2)sc1NC(=O)C1CCN(C(=O)Cc2cccc(NS(C)(=O)=O)c2)C1` (centres unmarked) [Compound 333]: 50 to 100 µM; for `CCOC(=O)c1cc(-c2ccc(P(=O)(OCC)OCC)cc2)sc1NC(=O)COC(=O)c1cccc(P(=O)(OCC)OCC)c1` [Compound 390]: > 100 µM.
Turning to `CCOC(=O)c1cc(-c2ccccc2)sc1NC(=O)Cc1nc(-c2cccc(NS(C)(=O)=O)c2)no1` [Compound 216], the concentration giving a half-maximal response (EC50) is > 100 µM.
On to `CCOC(=O)c1cc(-c2ccccc2)sc1NC(=O)Cn1cnc2cnc(NS(C)(=O)=O)nc21` [Compound 225], for which the concentration giving a half-maximal response (EC50) is > 100 µM.
Turning to `CS(=O)(=O)Nc1cccc(C(=O)OCC(=O)Nc2sc(-c3ccccc3)cc2C(=O)OCCOCc2ccccc2)c1` [Compound 223], the EC50 was > 100 µM.
For `CCOC(=O)c1cc(-c2ccccc2)sc1NC(=O)c1cccc(S(=O)(=O)NC)c1` [Compound 55], the EC50 is > 100 µM.
The result for `CCOC(=O)c1cc(P(=O)(O)O)sc1NC(=O)COC(=O)c1cccc(NS(C)(=O)=O)c1` [Compound 391] reads > 100 µM; that for `CCOC(=O)c1cc(-c2ccccc2)sc1NC(=O)c1cc(-c2cccc(NS(C)(=O)=O)c2)ncn1` [Compound 261], > 100 µM.
The same measure for `CC(C)(C)OC(=O)COC(=O)c1cc(-c2ccccc2)sc1NC(=O)COC(=O)c1cccc(NS(C)(=O)=O)c1` [Compound 203]: > 100 µM; for `CCOC(=O)c1cc(-c2ccccc2)sc1NC(=O)COC(=O)c1cccc(C(=O)O)c1` [Compound 96]: > 100 µM.
As to `CS(=O)(=O)Nc1cccc(C(=O)OCC(=O)Nc2nnc(-c3ccccc3)s2)c1` [Compound 153], the concentration giving a half-maximal response (EC50) is ≤ 25 µM.
The same measure for `CCOC(=O)c1cc(-c2ccccc2)sc1NC(=O)CN(C)C` [Compound 17]: > 100 µM.
For the compound `CCOC(=O)c1cc(-c2ccccc2)sc1NC(=O)COC(=O)c1cccc(OC(F)(F)F)c1` [Compound 63], the EC50 was > 100 µM.
Turning to `CCOC(=O)c1cc(-c2ccccc2)sc1NC(=O)CNS(=O)(=O)c1cccc(CO)c1` [Compound 61], the EC50 was > 100 µM.
Take `CON(C)C(=O)c1cc(-c2ccccc2)sc1NC(=O)COC(=O)c1cccc(NS(C)(=O)=O)c1` [Compound 217]: the EC50 was > 100 µM.
For `CCOC(=O)c1cc(-c2ccccc2)sc1NC(=O)c1cncc(-c2cccc(NS(C)(=O)=O)c2)n1` [Compound 264], the EC50 is > 100 µM.
Turning to `CCOC(=O)c1cc(-c2ccccc2)sc1NC(=O)COC(=O)c1cccc(NS(=O)(=O)c2ccc(C)cc2)c1` [Compound 102], the EC50 is > 100 µM.
The result for `CCOC(=O)c1cc(-c2ccccc2)sc1NC(=O)CN1CCN(S(C)(=O)=O)CC1` [Compound 143] reads > 100 µM; that for `CCOC(=O)c1cc(-c2ccccc2)sc1NC(=O)COC(=O)N1CCN(S(C)(=O)=O)CC1` [Compound 178], > 100 µM; that for `CCOC(=O)c1cc(NC(=O)c2ccccc2)sc1NC(=O)COC(=O)c1cccc(NS(C)(=O)=O)c1` [Compound 263], > 100 µM.
The same measure for `CCOC(=O)c1cc(-c2ccccc2)sc1NC(=O)c1coc(-c2cccc(NS(C)(=O)=O)c2)n1` [Compound 244]: > 100 µM.
As for `CCOC(=O)c1cc(-c2ccccc2)sc1NC(=O)CNC(=O)Cc1ccc(OS(C)(=O)=O)c(NS(C)(=O)=O)c1` [Compound 368], the EC50 was > 100 µM.
The same measure for `COC(=O)c1cc(-c2ccncc2)sc1NC(=O)c1cccc(S(N)(=O)=O)c1` [Compound 33]: > 100 µM.
The same measure for `CCOC(=O)c1cc(-c2ccccc2)sc1NC(=O)CCC(=O)c1cccc(NS(C)(=O)=O)c1` [Compound 303]: 50 to 100 µM; for `CCOC(=O)c1cc(-c2ccccc2)sc1NC(=O)C(C)OC(=O)c1cccc(NS(C)(=O)=O)c1` (centres unmarked) [Compound 195]: > 100 µM.
On to `NS(=O)(=O)c1cccc(NC(=O)CNC(=O)c2ccc(-c3ccccc3)s2)c1` [Compound 40], for which the EC50 was > 100 µM.
